pEC50: −log10 of the molar value. Bounds are passed on as bounds.

The first test deals with M. tuberculosis H37Rv_DdnL49P_gfp. The test is classed as cell-based, Mycobacterium tuberculosis. The settings on record: in combination with pretomanid, unit inferred; read-out: average EC50 H37Rv_DdnL49P_gfp.
Consider `CC(C)(C)C#Cc1ccc2nc(NC(=O)[C@@H]3C4C=CC(C4)[C@@H]3C(=O)O)sc2c1` (stereo partly drawn) [Example 78, 3-[[6-(3,3-dimethylbut-1-ynyl)-1,3-benzothiazol-2-yl]carbamoyl]bicyclo [2.2.1]hept-5-ene-2-carboxylic acid], for which the pEC50 (commonly the negative decadic logarithm of the EC50, by convention in mol/L) is 6.66.

For the molecule `O=C(Nc1nc2ccc(Oc3cc(C(F)(F)F)ccn3)cc2s1)[C@@H]1C2C=CC(C2)[C@@H]1C(=O)O` (stereo partly drawn) [Example 27, 3-[[6-[[4-(trifluoromethyl)-2-pyridyl]oxy]-1,3-benzothiazol-2-yl]carbamoyl]bicyclo[2.2.1]hept-5-ene-2-carboxylic acid], the negative logarithm of the EC50 (pEC50) is 6.64.

For the molecule `O=C(Nc1nc2ccc(-c3ccc(C(F)(F)F)cc3)cc2s1)[C@@H]1C2C=CC(C2)[C@@H]1C(=O)O` (stereo partly drawn) [Example 60, 3-[[6-[4-(trifluoromethyl)phenyl]-1,3-benzothiazol-2-yl]carbamoyl]bicyclo[2.2.1]hept-5-ene-2-carboxylic acid], the negative-log EC50 (pEC50) is 6.32.

Staying with this test, now noted: read-out: EC50 H37Rv_DdnL49P_gfp.
For `CC(C)(C)C#Cc1ccc2nc(NC(=O)[C@@H]3C4C=CC(C4)[C@@H]3C(=O)O)sc2c1` (stereo partly drawn) [Example 78, 3-[[6-(3,3-dimethylbut-1-ynyl)-1,3-benzothiazol-2-yl]carbamoyl]bicyclo [2.2.1]hept-5-ene-2-carboxylic acid], the pEC50 was more than 6.00.

On to `O=C(Nc1nc2ccc(Oc3ccc(C(F)(F)F)cc3)cc2s1)[C@@H]1C2C=CC(C2)[C@@H]1C(=O)O` (stereo partly drawn) [Example 22, 3-[[6-[4-(trifluoromethyl)phenoxy]-1,3-benzothiazol-2-yl]carbamoyl]bicyclo[2.2.1]hept-5-ene-2-carboxylic acid], for which the pEC50 was 5.30 to 6.00.

Consider `O=C1[C@@H]2[C@H](C(=O)N1c1nc3ccc(Oc4ccccc4)cc3s1)[C@@H]1C=C[C@H]2C1` [Example 19, (1R,2S,6R,7S)-4-(6-phenoxy-1,3-benzothiazol-2-yl)-4-azatricyclo[5.2.1.02,6]dec-8-ene-3,5-dione], for which the pEC50 is 5.30 to 6.00.

`Cc1ccc(-c2ccc3nc(NC(=O)[C@@H]4C5C=CC(C5)[C@@H]4C(=O)O)sc3c2)cc1` (stereo partly drawn) [Example 53, 3-[[6-(p-tolyl)-1,3-benzothiazol-2-yl]carbamoyl]bicyclo[2.2.1]hept-5-ene-2-carboxylic acid]: the pEC50 was more than 6.00.

Turning to `O=C(Nc1nc2ccc(C3CCCCC3)cc2s1)[C@@H]1C2C=CC(C2)[C@@H]1C(=O)O` (stereo partly drawn) [Example 52, 3-[(6-cyclohexyl-1,3-benzothiazol-2-yl)carbamoyl]bicyclo[2.2.1]hept-5-ene-2-carboxylic acid], the pEC50 was 5.30 to 6.00.

As for `O=C(Nc1nc2ccc(Cc3ccccc3)cc2s1)[C@@H]1C2C=CC(C2)[C@@H]1C(=O)O` (stereo partly drawn) [Example 20, 3-[(6-benzyl-1,3-benzothiazol-2-yl)carbamoyl]bicyclo[2.2.1]hept-5-ene-2-carboxylic acid], the pEC50 is more than 6.00.

In the case of `O=C(Nc1nc2ccc(Oc3cc(C(F)(F)F)ccn3)cc2s1)[C@@H]1C2C=CC(C2)[C@@H]1C(=O)O` (stereo partly drawn) [Example 27, 3-[[6-[[4-(trifluoromethyl)-2-pyridyl]oxy]-1,3-benzothiazol-2-yl]carbamoyl]bicyclo[2.2.1]hept-5-ene-2-carboxylic acid], the negative logarithm of the EC50 (pEC50) was more than 6.00.

As to `Cc1ccnc(Nc2ccc3nc(NC(=O)[C@@H]4C5C=CC(C5)[C@@H]4C(=O)O)sc3c2)c1` (stereo partly drawn) [Example 84, 3-[[6-[(4-methyl-2-pyridyl)amino]-1,3-benzothiazol-2-yl]carbamoyl]bicyclo[2.2.1]hept-5-ene-2-carboxylic acid], the negative-log EC50 (pEC50) was 5.30 to 6.00.

For `O=C1[C@@H]2[C@H](C(=O)N1c1nc3ccc(-c4ccc(C(F)(F)F)cc4)cc3s1)[C@@H]1C=C[C@H]2C1` [Example 61, (1R,2S,6R,7S)-4-[6-[4-(trifluoromethyl)phenyl]-1,3-benzothiazol-2-yl]-4-azatricyclo[5.2.1.02,6]dec-8-ene-3,5-dione], the pEC50 was more than 6.00.

As to `O=C(Nc1nc2ccc(Oc3ccc(Br)cn3)cc2s1)[C@@H]1C2C=CC(C2)[C@@H]1C(=O)O` (stereo partly drawn) [Example 37, 3-[[6-[(5-bromo-2-pyridyl)oxy]-1,3-benzothiazol-2-yl]carbamoyl]bicyclo [2.2.1]hept-5-ene-2-carboxylic acid], the pEC50 is 5.30 to 6.00.

Take `Cc1ccc2sc(NC(=O)[C@@H]3C4C=CC(C4)[C@@H]3C(=O)O)nc2c1C` (stereo partly drawn) [Example 15, 3-[(4,5-dimethyl-1,3-benzothiazol-2-yl)carbamoyl]bicyclo[2.2.1]hept-5-ene-2-carboxylic acid]: the negative-log EC50 (pEC50) is 5.30 to 6.00.

As for `O=C(Nc1nc2ccc(-c3cccc(C(F)(F)F)c3)cc2s1)[C@@H]1C2C=CC(C2)[C@@H]1C(=O)O` (stereo partly drawn) [Example 59, 3-[[6-[3-(trifluoromethyl)phenyl]-1,3-benzothiazol-2-yl]carbamoyl]bicyclo[2.2.1]hept-5-ene-2-carboxylic acid], the negative logarithm of the EC50 (pEC50) was 5.30 to 6.00.

`O=C(Nc1nc2ccc(-c3ccc(Cl)cc3)cc2s1)[C@@H]1C2C=CC(C2)[C@@H]1C(=O)O` (stereo partly drawn) [Example 55, 3-[[6-(4-chlorophenyl)-1,3-benzothiazol-2-yl]carbamoyl]bicyclo[2.2.1]hept-5-ene-2-carboxylic acid]: the pEC50 was more than 6.00.

In the case of `O=C1[C@@H]2[C@H](C(=O)N1c1nc3ccc(OC(F)(F)F)cc3s1)[C@@H]1C=C[C@H]2C1` [Example 45, (1R,2S,6R,7S)-4-[6-(trifluoromethoxy)-1,3-benzothiazol-2-yl]-4-azatricyclo[5.2.1.02,6]dec-8-ene-3,5-dione], the pEC50 was 5.00 to 5.30.

Consider `Cc1cccc2sc(NC(=O)[C@@H]3C4C=CC(C4)[C@@H]3C(=O)O)nc12` (stereo partly drawn) [Example 16, 3-[(4-methyl-1,3-benzothiazol-2-yl)carbamoyl]bicyclo[2.2.1]hept-5-ene-2-carboxylic acid], for which the pEC50 is 5.30 to 6.00.

As to `O=C1[C@@H]2[C@H](C(=O)N1c1nc3ccc(Oc4cc(C(F)(F)F)ccn4)cc3s1)[C@@H]1C=C[C@H]2C1` [Example 28, (1R,2S,6R,7S)-4-[6-[[4-(trifluoromethyl)-2-pyridyl]oxy]-1,3-benzothiazol-2-yl]-4-azatricyclo[5.2.1.02,6]dec-8-ene-3,5-dione], the pEC50 was more than 6.00.

As for `O=C(Nc1nc2ccc(-c3ccoc3)cc2s1)[C@@H]1C2C=CC(C2)[C@@H]1C(=O)O` (stereo partly drawn) [Example 69, 3-[[6-(3-furyl)-1,3-benzothiazol-2-yl]carbamoyl]bicyclo[2.2.1]hept-5-ene-2-carboxylic acid], the pEC50 is more than 6.00.

For `C#Cc1ccc2nc(N3C(=O)[C@@H]4[C@H](C3=O)[C@@H]3C=C[C@H]4C3)sc2c1` [Example 72, (1R,2S,6R,7S)-4-(6-ethynyl-1,3-benzothiazol-2-yl)-4-azatricyclo[5.2.1.02,6]dec-8-ene-3,5-dione], the pEC50 is 5.30 to 6.00.

As for `COc1cc(Nc2ccc3nc(N4C(=O)[C@@H]5C6C=CC(C6)[C@@H]5C4=O)sc3c2)ccn1` [Example 92, 4-[6-[(2-methoxy-4-pyridyl)amino]-1,3-benzothiazol-2-yl]-4-azatricyclo[5.2.1.02,6]dec-8-ene-3,5-dione], the pEC50 is 5.30 to 6.00.

For the molecule `O=C(Nc1nc2ccc(Nc3cncc(C(F)(F)F)c3)cc2s1)[C@@H]1C2C=CC(C2)[C@@H]1C(=O)O` (stereo partly drawn) [Example 91, 3-[[6-[[5-(trifluoromethyl)-3-pyridyl]amino]-1,3-benzothiazol-2-yl]carbamoyl]bicyclo[2.2.1]hept-5-ene-2-carboxylic acid], the pEC50 is 5.00 to 5.30.

With `O=C(Nc1nc2ccc(Nc3ccnc(F)c3)cc2s1)[C@@H]1C2C=CC(C2)[C@@H]1C(=O)O` (stereo partly drawn) [Example 99, 3-[[6-[(2-fluoro-4-pyridyl)amino]-1,3-benzothiazol-2-yl]carbamoyl]bicyclo[2.2.1]hept-5-ene-2-carboxylic acid], the pEC50 is 5.30 to 6.00.

For `O=C(Nc1nc2ccc(-c3ccc(C(F)(F)F)cc3)cc2s1)[C@@H]1C2C=CC(C2)[C@@H]1C(=O)O` (stereo partly drawn) [Example 60, 3-[[6-[4-(trifluoromethyl)phenyl]-1,3-benzothiazol-2-yl]carbamoyl]bicyclo[2.2.1]hept-5-ene-2-carboxylic acid], the pEC50 is more than 6.00.

For `O=C1[C@@H]2[C@H](C(=O)N1c1nc3ccc(-c4ccoc4)cc3s1)[C@@H]1C=C[C@H]2C1` [Example 70, (1R,2S,6R,7S)-4-[6-(3-furyl)-1,3-benzothiazol-2-yl]-4-azatricyclo[5.2.1.02,6]dec-8-ene-3,5-dione], the pEC50 is 5.30 to 6.00.

Take `O=C(Nc1nc2ccc(Oc3ccccc3)cc2s1)[C@@H]1C2C=CC(C2)[C@@H]1C(=O)O` (stereo partly drawn) [Example 18, [2-hydroxy-1,1-bis(hydroxymethyl)ethyl]ammonium: (1R,2S,3R,4S)-3-[(6-phenoxy-1,3-benzothiazol-2-yl)carbamoyl]bicyclo[2.2.1]hept-5-ene-2-carboxylate]: the pEC50 is more than 6.00.

As for `O=C(Nc1nc2ccc(Oc3ccncc3)cc2s1)[C@@H]1C2C=CC(C2)[C@@H]1C(=O)O` (stereo partly drawn) [Example 24, 3-[[6-(4-pyridyloxy)-1,3-benzothiazol-2-yl]carbamoyl]bicyclo[2.2.1]hept-5-ene-2-carboxylic acid], the pEC50 was 5.00 to 5.30.

`O=C(Nc1nc2ccc(-c3cncnc3)cc2s1)[C@@H]1C2C=CC(C2)[C@@H]1C(=O)O` (stereo partly drawn) [Example 80, 3-[(6-pyrimidin-5-yl-1,3-benzothiazol-2-yl)carbamoyl]bicyclo[2.2.1]hept-5-ene-2-carboxylic acid]: the pEC50 was 4.70 to 5.00.

For the molecule `O=C1[C@@H]2C3C=CC(C3)[C@@H]2C(=O)N1c1nc2c(O)cccc2s1` [Example 74], the pEC50 was 5.30 to 6.00.

Regarding `O=C(Nc1nc2ccc(Nc3cccc(F)n3)cc2s1)[C@@H]1C2C=CC(C2)[C@@H]1C(=O)O` (stereo partly drawn) [Example 88, 3-[[6-[(6-fluoro-2-pyridyl)amino]-1,3-benzothiazol-2-yl]carbamoyl]bicyclo[2.2.1]hept-5-ene-2-carboxylic acid], the pEC50 is more than 6.00.

For the molecule `Cc1ccc2nc(N3C(=O)[C@@H]4[C@H](C3=O)[C@@H]3C=C[C@H]4C3)sc2c1` [Example 2, (1R,2S,6R,7S)-4-(6-methyl-1,3-benzothiazol-2-yl)-4-azatricyclo[5.2.1.02,6]dec-8-ene-3,5-dione], the pEC50 is 5.00 to 5.30.

As for `Cc1ccnc(Oc2ccc3nc(NC(=O)[C@@H]4C5C=CC(C5)[C@@H]4C(=O)O)sc3c2)c1` (stereo partly drawn) [Example 29, 3-[[6-[(4-methyl-2-pyridyl)oxy]-1,3-benzothiazol-2-yl]carbamoyl]bicyclo[2.2.1]hept-5-ene-2-carboxylic acid], the pEC50 is more than 6.00.

`O=C(Nc1nc2ccc(Nc3ccc(C(F)(F)F)cn3)cc2s1)[C@@H]1C2C=CC(C2)[C@@H]1C(=O)O` (stereo partly drawn) [Example 96, 3-[[6-[[5-(trifluoromethyl)-2-pyridyl]amino]-1,3-benzothiazol-2-yl]carbamoyl]bicyclo[2.2.1]hept-5-ene-2-carboxylic acid]: the pEC50 was more than 6.00.

Take `Cc1ccnc(Oc2ccc3nc(N4C(=O)[C@@H]5C6C=CC(C6)[C@@H]5C4=O)sc3c2)c1` [Example 30]: the pEC50 is more than 6.00.

Regarding `O=C1[C@@H]2C3C=CC(C3)[C@@H]2C(=O)N1c1nc2ccc(-c3ccc(F)nc3)cc2s1` [Example 65, (1R,2S,6R,7S)-4-[6-(6-fluoro-3-pyridyl)-1,3-benzothiazol-2-yl]-4-azatricyclo[5.2.1.02.6]dec-8-ene-3,5-dione], the pEC50 is 5.30 to 6.00.

These data come from patent US20250382273A1 (INSTITUT NATIONAL DE LA SANTE ET DE LA RECHERCHE MEDICALE, priority 2022, published 2025).
